Assay results from paper PMC5218480 (PLoS ONE, 2017).

Tested on: MV-4-11 cells
Assay: Gene expression microarray analysis (Affymetrix PrimeView) and GSEA
Type: cell-based, human
Design: RFU PODN (11730768_x_at) / Fold change /veh PODN (11730768_x_at) / RFU LINC00158 (11744669_a_at) / Fold change /veh LINC00158 (11744669_a_at) / RFU DUSP10 (11751237_a_at) / Fold change /veh DUSP10 (11751237_a_at) / RFU ID3 (11757404_x_at) / Fold change /veh ID3 (11757404_x_at) / RFU PLEKHG5 (11737974_s_at) / Fold change /veh PLEKHG5 (11737974_s_at) / RFU LRRC4B (11730491_at) / Fold change /veh LRRC4B (11730491_at) / RFU GIMAP4 (11747438_a_at) / Fold change /veh GIMAP4 (11747438_a_at) / RFU KRT8 (11758183_x_at) / Fold change /veh KRT8 (11758183_x_at) / RFU CNN1 (11734310_a_at) / Fold change /veh CNN1 (11734310_a_at) / RFU VPS37D (11726825_at) / Fold change /veh VPS37D (11726825_at) / RFU C10orf10 (11716522_x_at) / Fold change /veh C10orf10 (11716522_x_at) / RFU KIR2DL2 /// KIR2DL4 /// KIR2DL5A /// KIR2DL5B /// KIR2DS1 /// KIR2DS2 /// KIR2DS3 /// KIR2DS4 /// KIR3DL3 /// KIR3DL3 /// KIR3DS1 (11738374_at) / Fold change /veh KIR2DL2 /// KIR2DL4 /// KIR2DL5A /// KIR2DL5B /// KIR2DS1 /// KIR2DS2 /// KIR2DS3 /// KIR2DS4 /// KIR3DL3 /// KIR3DL3 /// KIR3DS1 (11738374_at) / RFU C1QL1 (11718748_at) / Fold change /veh C1QL1 (11718748_at) / RFU TMPRSS4 (11747572_a_at) / Fold change /veh TMPRSS4 (11747572_a_at) / RFU HAMP (11756126_x_at) / Fold change /veh HAMP (11756126_x_at) / RFU RNFT2 (11725882_a_at) / Fold change /veh RNFT2 (11725882_a_at) / RFU NR4A2 (11747474_a_at) / Fold change /veh NR4A2 (11747474_a_at) / RFU ABCC12 (11746883_a_at) / Fold change /veh ABCC12 (11746883_a_at) / RFU TMEM136 (11760407_x_at) / Fold change /veh TMEM136 (11760407_x_at) / RFU CLDN22 /// WWC2 (11732394_at) / Fold change /veh CLDN22 /// WWC2 (11732394_at) / RFU HLA-DPB1 (11760878_x_at) / Fold change /veh HLA-DPB1 (11760878_x_at) / RFU SPINT1 (11716480_a_at) / Fold change /veh SPINT1 (11716480_a_at) / RFU GAP43 (11754022_s_at) / Fold change /veh GAP43 (11754022_s_at) / RFU A4GNT (11735810_at) / Fold change /veh A4GNT (11735810_at) / RFU PRB3 (11715151_x_at) / Fold change /veh PRB3 (11715151_x_at) / RFU TUBB4B (11761932_at) / Fold change /veh TUBB4B (11761932_at) / RFU CAPN14 (11732068_a_at) / Fold change /veh CAPN14 (11732068_a_at) / RFU TMCC2 (11721928_a_at) / Fold change /veh TMCC2 (11721928_a_at) / RFU IRGQ (11745062_a_at) / Fold change /veh IRGQ (11745062_a_at) / RFU FAM174B (11720279_a_at) / Fold change /veh FAM174B (11720279_a_at) / RFU TMPRSS4 (11748680_a_at) / Fold change /veh TMPRSS4 (11748680_a_at) / RFU FAM212B (11763350_a_at) / Fold change /veh FAM212B (11763350_a_at) / RFU PLEKHG5 (11743358_a_at) / Fold change /veh PLEKHG5 (11743358_a_at) / RFU ZSCAN30 (11745921_a_at) / Fold change /veh ZSCAN30 (11745921_a_at) / RFU CMKLR1 (11741424_a_at) / Fold change /veh CMKLR1 (11741424_a_at) / RFU LOC101060620 /// MAPK8IP1 (11723275_at) / Fold change /veh LOC101060620 /// MAPK8IP1 (11723275_at) / RFU SPTSSB (11747773_x_at) / Fold change /veh SPTSSB (11747773_x_at) / RFU PRSS12 (11739890_at) / Fold change /veh PRSS12 (11739890_at) / RFU BIN1 (11741810_x_at) / Fold change /veh BIN1 (11741810_x_at) / RFU WNT11 (11732464_a_at) / Fold change /veh WNT11 (11732464_a_at) / RFU C10orf10 (11716521_a_at) / Fold change /veh C10orf10 (11716521_a_at) / RFU C5orf56 (11738089_at) / Fold change /veh C5orf56 (11738089_at) / RFU CYB561 (11721691_x_at) / Fold change /veh CYB561 (11721691_x_at) / RFU ANKRD19P (11752326_a_at) / Fold change /veh ANKRD19P (11752326_a_at) / RFU OR2T12 /// OR2T33 /// OR2T8 (11738714_s_at) / Fold change /veh OR2T12 /// OR2T33 /// OR2T8 (11738714_s_at) / RFU VCAN (11748164_a_at) / Fold change /veh VCAN (11748164_a_at) / RFU JSRP1 (11732532_at) / Fold change /veh JSRP1 (11732532_at) / RFU KRTAP10-11 (11738290_x_at) / Fold change /veh KRTAP10-11 (11738290_x_at) / RFU MYO3A (11730013_a_at) / Fold change /veh MYO3A (11730013_a_at) / RFU EBF3 (11725865_a_at) / Fold change /veh EBF3 (11725865_a_at) / RFU CAMK2N1 (11719241_x_at) / Fold change /veh CAMK2N1 (11719241_x_at) / RFU C5orf56 (11738088_a_at) / Fold change /veh C5orf56 (11738088_a_at) / RFU OLFML3 (11715873_a_at) / Fold change /veh OLFML3 (11715873_a_at) / RFU LOC100653217 /// NTM (11731650_a_at) / Fold change /veh LOC100653217 /// NTM (11731650_a_at) / RFU MAPK11 (11762145_a_at) / Fold change /veh MAPK11 (11762145_a_at) / RFU FIZ1 (11724087_x_at) / Fold change /veh FIZ1 (11724087_x_at) / RFU OASL (11726364_x_at) / Fold change /veh OASL (11726364_x_at) / RFU SOX15 (11748057_x_at) / Fold change /veh SOX15 (11748057_x_at) / RFU CD79A (11719716_a_at) / Fold change /veh CD79A (11719716_a_at) / RFU HIST1H1D (11736915_at) / Fold change /veh HIST1H1D (11736915_at) / RFU CASKIN2 (11723855_a_at) / Fold change /veh CASKIN2 (11723855_a_at) / RFU LOC730098 (11760151_x_at) / Fold change /veh LOC730098 (11760151_x_at) / RFU OR4N2 (11742367_at) / Fold change /veh OR4N2 (11742367_at) / RFU PRRT2 (11749266_a_at) / Fold change /veh PRRT2 (11749266_a_at) / RFU SNX32 (11753110_a_at) / Fold change /veh SNX32 (11753110_a_at) / RFU CDHR5 (11726645_a_at) / Fold change /veh CDHR5 (11726645_a_at) / RFU RCAN1 (11760418_a_at) / Fold change /veh RCAN1 (11760418_a_at) / RFU FAM167A (11723789_a_at) / Fold change /veh FAM167A (11723789_a_at) / RFU FAM26E (11764081_at) / Fold change /veh FAM26E (11764081_at) / RFU ISYNA1 (11749810_s_at) / Fold change /veh ISYNA1 (11749810_s_at) / RFU ACY1 (11761880_at) / Fold change /veh ACY1 (11761880_at) / RFU 11764098_at / Fold change /veh 11764098_at / RFU SAMD14 (11745864_x_at) / Fold change /veh SAMD14 (11745864_x_at) / RFU NPB (11741838_a_at) / Fold change /veh NPB (11741838_a_at) / RFU TMPRSS6 (11731388_a_at) / Fold change /veh TMPRSS6 (11731388_a_at) / RFU KRTAP10-2 (11738614_at) / Fold change /veh KRTAP10-2 (11738614_at) / RFU ARHGAP8 /// PRR5-ARHGAP8 (11727945_x_at) / Fold change /veh ARHGAP8 /// PRR5-ARHGAP8 (11727945_x_at) / RFU KRTAP5-7 /// NADSYN1 (11734609_at) / Fold change /veh KRTAP5-7 /// NADSYN1 (11734609_at) / RFU RASL12 (11751679_a_at) / Fold change /veh RASL12 (11751679_a_at) / RFU CDKN2B (11736163_a_at) / Fold change /veh CDKN2B (11736163_a_at) / RFU PRF1 (11729649_at) / Fold change /veh PRF1 (11729649_at) / RFU, ZNF638 /// ZNF638-IT1 / Fold change vs veh, ZNF638 /// ZNF638-IT1 / RFU, PANK3 / Fold change vs veh, PANK3 / RFU, SH3YL1 / Fold change vs veh, SH3YL1 / RFU, ZEB2 / Fold change vs veh, ZEB2 / RFU, NRIP1 / Fold change vs veh, NRIP1 / RFU, PTTG1IP / Fold change vs veh, PTTG1IP / RFU, CAPN2 / Fold change vs veh, CAPN2 / RFU, MED14 / Fold change vs veh, MED14 / RFU, SNORA58 / Fold change vs veh, SNORA58 / RFU, C1orf63 / Fold change vs veh, C1orf63 / RFU, LRRFIP1 / Fold change vs veh, LRRFIP1 / RFU, NDUFAF7 / Fold change vs veh, NDUFAF7 / RFU, SLC12A2 / Fold change vs veh, SLC12A2 / RFU, IBTK / Fold change vs veh, IBTK / RFU, ESF1 / Fold change vs veh, ESF1 / Fold change vs veh, TMEM50B / RFU, TAOK1 / Fold change vs veh, TAOK1 / RFU, ACBD3 / Fold change vs veh, ACBD3 / RFU, TMA16 / Fold change vs veh, TMA16 / RFU, RWDD3 / Fold change vs veh, RWDD3 / RFU, BCAT1 / Fold change vs veh, BCAT1 / RFU, EDEM3 / Fold change vs veh, EDEM3 / RFU, TMEM33 / Fold change vs veh, TMEM33 / RFU, WDR75 / Fold change vs veh, WDR75 / RFU, AHCTF1 / Fold change vs veh, AHCTF1 / RFU, TFRC / Fold change vs veh, TFRC / RFU, ZDHHC17 / Fold change vs veh, ZDHHC17 / RFU, NOM1 / Fold change vs veh, NOM1 / RFU, ARL8B / Fold change vs veh, ARL8B / RFU, ZBTB11 / Fold change vs veh, ZBTB11 / RFU, TAMM41 / Fold change vs veh, TAMM41 / RFU, KIAA1704 /// LOC100996395 / Fold change vs veh, KIAA1704 /// LOC100996395 / RFU, ING1 / Fold change vs veh, ING1 / RFU, TRMT61B / Fold change vs veh, TRMT61B / RFU, FUBP3 / Fold change vs veh, FUBP3 / RFU, TP53 / Fold change vs veh, TP53 / RFU, TNKS2 / Fold change vs veh, TNKS2 / RFU, ZFP14 / Fold change vs veh, ZFP14 / RFU, ACTR2 / Fold change vs veh, ACTR2 / RFU, PPP3R1 / Fold change vs veh, PPP3R1 / RFU, PIK3R1 / Fold change vs veh, PIK3R1 / RFU, HNRNPA1 / Fold change vs veh, HNRNPA1 / RFU, RNF170 / Fold change vs veh, RNF170 / RFU, ZNF28 / Fold change vs veh, ZNF28 / RFU, RNGTT / Fold change vs veh, RNGTT / RFU, OGT / Fold change vs veh, OGT / RFU, BRD1 / Fold change vs veh, BRD1 / RFU, MARS / Fold change vs veh, MARS / RFU, ZNF655 / Fold change vs veh, ZNF655 / RFU, FAHD1 / Fold change vs veh, FAHD1 / RFU, BDP1 / Fold change vs veh, BDP1 / RFU, LRRCC1 / Fold change vs veh, LRRCC1 / RFU, ARID1A / Fold change vs veh, ARID1A / RFU, ZNF146 / Fold change vs veh, ZNF146 / RFU, ZNF330 / Fold change vs veh, ZNF330 / RFU, GPN3 / Fold change vs veh, GPN3 / RFU, C9orf123 / Fold change vs veh, C9orf123 / RFU, N4BP2L2 / Fold change vs veh, N4BP2L2 / RFU, ARFIP1 / Fold change vs veh, ARFIP1 / RFU, FAM179B / Fold change vs veh, FAM179B / RFU, BCL10 / Fold change vs veh, BCL10 / RFU, UHRF1BP1L / Fold change vs veh, UHRF1BP1L / RFU, BET1 / Fold change vs veh, BET1 / RFU, CNOT2 / Fold change vs veh, CNOT2 / RFU, ZNF268 / Fold change vs veh, ZNF268 / Fold change vs veh, ZNF507 / RFU, DGCR2 / Fold change vs veh, DGCR2 / RFU, WDSUB1 / Fold change vs veh, WDSUB1 / Fold change vs veh, HSP90B1 /// MIR3652 / RFU, ADSS / Fold change vs veh, ADSS / RFU, GK / Fold change vs veh, GK / RFU, ZNF148 / Fold change vs veh, ZNF148 / RFU, TAF9 / Fold change vs veh, TAF9 / RFU, SLC1A5 / Fold change vs veh, SLC1A5 / RFU, SLMO2 / Fold change vs veh, SLMO2 / RFU, ABCC4 / Fold change vs veh, ABCC4 / RFU, LOC101060439 /// RAP1B / Fold change vs veh, LOC101060439 /// RAP1B / RFU, RFX7 / Fold change vs veh, RFX7 / RFU, GTPBP10 / Fold change vs veh, GTPBP10 / RFU, CNEP1R1 / Fold change vs veh, CNEP1R1 / RFU, BIVM-ERCC5 /// ERCC5 / Fold change vs veh, BIVM-ERCC5 /// ERCC5 / RFU, ILF3 / Fold change vs veh, ILF3 / RFU 11762660_at / Fold change /veh 11762660_at / RFU VCAN (11757783_s_at) / Fold change /veh VCAN (11757783_s_at) / RFU DDX43 (11728927_at) / Fold change /veh DDX43 (11728927_at) / RFU KRT8 (11758188_x_at) / Fold change /veh KRT8 (11758188_x_at) / RFU NKD1 (11759106_at) / Fold change /veh NKD1 (11759106_at) / RFU SRD5A1 (11742802_a_at) / Fold change /veh SRD5A1 (11742802_a_at) / RFU TPSAB1 /// TPSB2 (11721975_s_at) / Fold change /veh TPSAB1 /// TPSB2 (11721975_s_at) / RFU GSTM3 (11746129_a_at) / Fold change /veh GSTM3 (11746129_a_at) / RFU IL23R (11737362_x_at) / Fold change /veh IL23R (11737362_x_at) / RFU TMEM51 (11727254_a_at) / Fold change /veh TMEM51 (11727254_a_at) / RFU PIWIL2 (11732686_x_at) / Fold change /veh PIWIL2 (11732686_x_at) / RFU ORM1 (11744905_x_at) / Fold change /veh ORM1 (11744905_x_at) / RFU CCDC152 (11743942_at) / Fold change /veh CCDC152 (11743942_at) / RFU ECM1 (11717891_a_at) / Fold change /veh ECM1 (11717891_a_at) / RFU IL23R (11748794_a_at) / Fold change /veh IL23R (11748794_a_at) / RFU TNFAIP8L3 (11732012_x_at) / Fold change /veh TNFAIP8L3 (11732012_x_at) / RFU MBOAT4 (11741988_at) / Fold change /veh MBOAT4 (11741988_at) / RFU 11764193_at / Fold change /veh 11764193_at / RFU TMEM53 (11763286_at) / Fold change /veh TMEM53 (11763286_at) / RFU MAGEB2 (11727129_at) / Fold change /veh MAGEB2 (11727129_at) / RFU TMEM200A (11744735_a_at) / Fold change /veh TMEM200A (11744735_a_at) / RFU CCDC152 (11751479_a_at) / Fold change /veh CCDC152 (11751479_a_at) / RFU FAM211A (11726209_a_at) / Fold change /veh FAM211A (11726209_a_at) / RFU RGS16 (11746705_a_at) / Fold change /veh RGS16 (11746705_a_at) / RFU VCAN (11755009_s_at) / Fold change /veh VCAN (11755009_s_at) / RFU RHOB (11743442_s_at) / Fold change /veh RHOB (11743442_s_at) / RFU RGS16 (11720943_a_at) / Fold change /veh RGS16 (11720943_a_at) / RFU RGS16 (11720944_at) / Fold change /veh RGS16 (11720944_at) / RFU, VPS4B / Fold change vs veh, VPS4B / RFU, CREB1 / Fold change vs veh, CREB1 / RFU, DNAJC13 / Fold change vs veh, DNAJC13 / RFU, GNAQ / Fold change vs veh, GNAQ / RFU, CDK5R1 / Fold change vs veh, CDK5R1 / RFU, ZRANB3 / Fold change vs veh, ZRANB3 / RFU, CUL4A / Fold change vs veh, CUL4A / RFU, CCNY / Fold change vs veh, CCNY / RFU, UFL1 / Fold change vs veh, UFL1 / RFU, COG3 / Fold change vs veh, COG3 / RFU, DIAPH2 / Fold change vs veh, DIAPH2 / RFU, SKA2 / Fold change vs veh, SKA2 / RFU, AFF3 / Fold change vs veh, AFF3 / RFU, LMF1 / Fold change vs veh, LMF1 / RFU, IPO11 / Fold change vs veh, IPO11 / RFU, DFFB / Fold change vs veh, DFFB / RFU, FOXP1 / Fold change vs veh, FOXP1 / RFU, CARD8 / Fold change vs veh, CARD8 / RFU, STRN3 / Fold change vs veh, STRN3 / RFU, ADK / Fold change vs veh, ADK / RFU, RASSF2 / Fold change vs veh, RASSF2 / RFU, WIPF1 / Fold change vs veh, WIPF1 / RFU, LARP1B / Fold change vs veh, LARP1B / RFU, RASA1 / Fold change vs veh, RASA1 / RFU, RB1 / Fold change vs veh, RB1 / RFU, PPFIA1 / Fold change vs veh, PPFIA1 / RFU, MAT2A / Fold change vs veh, MAT2A / RFU, CCT5 / Fold change vs veh, CCT5 / RFU, WDR92 / Fold change vs veh, WDR92 / RFU, CUX1 / Fold change vs veh, CUX1 / RFU, TTC7A / Fold change vs veh, TTC7A / RFU, TMEM135 / Fold change vs veh, TMEM135 / RFU, DEPTOR / Fold change vs veh, DEPTOR / RFU, CPM / Fold change vs veh, CPM / RFU, DNAJB6 / Fold change vs veh, DNAJB6 / RFU, CACNA2D3 / Fold change vs veh, CACNA2D3 / RFU, DTX4 / Fold change vs veh, DTX4 / RFU, TFCP2 / Fold change vs veh, TFCP2 / RFU, GMCL1 /// GMCL1P1 / Fold change vs veh, GMCL1 /// GMCL1P1 / RFU, AEBP2 / Fold change vs veh, AEBP2 / RFU, SNHG1 /// SNORD22 /// SNORD25 /// SNORD26 /// SNORD27 /// SNORD28 /// SNORD29 /// SNORD31 / Fold change vs veh, SNHG1 /// SNORD22 /// SNORD25 /// SNORD26 /// SNORD27 /// SNORD28 /// SNORD29 /// SNORD31 / Fold change (Aza/veh), C12orf56 (ProbeSet 11735607_a_at) / Fold change (ACY-1035/veh), C12orf56 (ProbeSet 11735607_a_at) / Fold change (Aza/veh), FGFR1OP (ProbeSet 11751329_s_at) / Fold change (ACY-1035/veh), FGFR1OP (ProbeSet 11751329_s_at) / Fold change (Aza/veh), VPS36 (ProbeSet 11739960_a_at) / Fold change (ACY-1035/veh), VPS36 (ProbeSet 11739960_a_at) / RFU SYPL1 (11715823_x_at) / Fold change /veh SYPL1 (11715823_x_at) / RFU IGFBP7 (11715501_s_at) / Fold change /veh IGFBP7 (11715501_s_at) / RFU REEP3 (11722064_at) / Fold change /veh REEP3 (11722064_at) / RFU IGLL1 (11728026_x_at) / Fold change /veh IGLL1 (11728026_x_at): dose or concentration left out as unconfirmed
Settings: ProbeSet 11740781_a_at; LIST B

Structure (SMILES): Nc1ccc(-c2cccs2)cc1NC(=O)c1ccc2c(c1)cc(C1CC1)n2CCN1CCOCC1 [ACY-1035]
- Fold change vs veh, ILF3: 0.88
